Data on six compounds can be found in patent US20060079453A1, “Hla binding peptides and their uses” (priority 2002, published 2006).

pIC50: −log10 of the molar value. No end group written: not given here. Bounds are passed on as bounds.

Common to all, as to experiment: biochemical
What all share (format): binding

Test [1] deals with HLA-DR DRB1*1501 (DR15) (Homo sapiens, UniProt P01903+P01911). The conditions noted are these: DRBI *1501.
Test [2] has as its target HLA-DR DRB1*0401 (DR4) (Homo sapiens, UniProt P01903+P01911, A100K/A169T/F76Y/I96L/K127E/L162R/M171V/N62H/P40V/Q125Y/R42H/S133A/S149N/S66Y/V115G/V209L/W38E). The conditions noted are these: DRB1 *0401.
Test [3] concerns the target HLA-DR DRB1*0701 (DR7) (Homo sapiens, UniProt P01903+P01911, A100R/A102G/A103Q/D57E/D86V/E43K/F76Y/K127E/L162R/M171V/P40G/Q125H/Q99D/R33Q/R42Y/R54Q/S133A/S66F/T210M/V115G/Y107V/Y59L/Y89S). Conditions: DRB1 *0701.
Test [4] addresses HLA-DR DRB1*0901 (DR9) (Homo sapiens, UniProt P01903+P01911, A100R/A103E/D57H/D86V/F55Y/F60I/F76Y/I96F/K127E/L162R/M171V/P40D/Q125H/Q99R/R33Q/R42F/S133A/S66N/T210M/V115G/W38K/Y107V/Y59G/Y89S). Conditions: DRB1 *0901.
The target in test [5] is HLA-DR DRB5*0101 (DR51) (Homo sapiens, UniProt P01903+Q30154). Conditions: DRB5 *0101.
Test [6] has as its target HLA-DR DRB1*0101 (DR1) (Homo sapiens, UniProt P01903+P01911, A100R/D57E/F55L/F60I/F76Y/I96L/L162R/M171V/P40L/Q125E/R42F/V115G/Y59C). The conditions noted are these: DRB1 *0101.
For test [7], the target named is HLA-DR DRB3*0101 (DR52) (Homo sapiens, UniProt P01903+P79483).
Test [8] concerns the target HLA-DR DRB1*1302 (DR13) (Homo sapiens, UniProt P01903+P01911, A100E/A169T/K41T/L162R/M171V/P40S/Q125H/Q178H/Q39Y/Q99D/R42S/S66N/T262R/V115G/W38E/Y61H). Conditions: DRBI *1302.
Test [9] has as its target HLA-DR DRB4*0101 (DR53) (Homo sapiens, UniProt P01903+P13762, G164S). Conditions: DRB4 *0101.
Test [10] concerns the target HLA-DR DRB1*1101 (DR11) (Homo sapiens, UniProt P01903+P01911, A100R/A169T/A87E/I96F/K41T/L162R/M171V/P40S/Q125H/Q178H/Q39Y/Q99D/R42S/S66Y/T262R/V115G/W38E). Conditions: DRB1 *1101.
For test [11], the target named is HLA-DR DRB1*0301 (DR3) (Homo sapiens, UniProt P01903+P01911, A100K/A102G/A103R/A169T/F55Y/I96L/K41T/L162R/M171V/P40S/Q125H/Q178H/Q39Y/R42S/S66N/T106N/T262R/W38E/Y61H).
In test [12] the target is HLA-DR DRB1*0802 (DR8) (Homo sapiens, UniProt P01903+P01911, A100R/A103L/A169T/F76Y/H45Y/I96F/K41T/L162R/M171V/P40S/Q125H/Q178H/Q39Y/Q99D/R218S/R42G/S66Y/V115G/W38E).

Chain of HLA-DR DRB1*0301 (DR3) (P01903 26-254 limits assumed, other chains not shown): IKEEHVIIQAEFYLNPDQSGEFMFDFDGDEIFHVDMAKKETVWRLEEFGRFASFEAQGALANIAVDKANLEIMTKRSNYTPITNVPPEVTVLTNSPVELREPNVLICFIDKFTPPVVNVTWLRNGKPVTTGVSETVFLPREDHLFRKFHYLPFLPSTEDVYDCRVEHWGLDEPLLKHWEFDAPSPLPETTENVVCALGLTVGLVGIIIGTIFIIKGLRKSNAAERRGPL
Chain of HLA-DR DRB1*1302 (DR13) (P01903 26-254 limits assumed, other chains not shown): as above
Chain of HLA-DR DRB1*1101 (DR11) (P01903 26-254 limits assumed, other chains not shown): as above

In the case of `CC(C)C[C@H](NC(=O)CNC(=O)[C@H](CC(N)=O)NC(=O)[C@H](Cc1ccc(O)cc1)NC(=O)[C@@H](NC(=O)[C@H](CC(=O)O)NC(=O)[C@H](CC(C)C)NC(=O)[C@H](C)N)C(C)C)C(=O)N[C@@H](CC(C)C)C(=O)N1CCC[C@H]1C(=O)N1CCC[C@H]1C(=O)N[C@@H](Cc1ccc(O)cc1)C(=O)N[C@@H](C)C(=O)N[C@@H](CO)C(=O)N[C@@H](CS)C(=O)O`, the pIC50 in test [1] was 5.96; in test [2], 6.31; in [3], < 4.08; in test [4], 4.06; in test [5] it was 3.94; in test [6], 7.74. The pIC50 in [7] is < 4.83; in test [8], < 4.46; in [9] it was < 5.00.
On to LLYTFRKDMDKVETF, for which the pIC50 in test [10] was 5.10; in test [1] it was 6.05; in test [2], 4.97; in [3], 4.27; in test [4], < 4.23; in test [6], < 4.75. Also, the figures for the pIC50 in test [11], in test [7] and in test [8] were 4.62, 6.03 and < 4.84, respectively.
`CSCC[C@H](NC(=O)[C@H](CC(=O)O)NC(=O)[C@H](Cc1ccc(O)cc1)NC(=O)[C@H](CC(C)C)NC(=O)[C@@H]1CCCN1C(=O)[C@H](Cc1c[nH]cn1)NC(=O)[C@@H]1CCCN1C(=O)[C@H](Cc1ccccc1)NC(=O)[C@H](CO)NC(=O)[C@H](Cc1c[nH]cn1)NC(=O)[C@H](CO)NC(=O)[C@@H](NC(=O)[C@H](CCC(N)=O)NC(=O)[C@H](Cc1ccccc1)NC(=O)[C@@H](N)C(C)C)C(C)C)C(=O)O`: the pIC50 in [1] was 5.62; in [2], 7.60; in test [3] it was 7.29; in [4] it was 7.77; in test [6] it was 7.80; in test [11], < 4.12. Also, the pIC50 in [7] was 4.63; in [8], 7.08; in [9], < 4.90.
For `CC[C@H](C)[C@H](N)C(=O)N[C@@H](Cc1ccc(O)cc1)C(=O)N[C@@H](CO)C(=O)N[C@H](C(=O)N[C@@H](CO)C(=O)N[C@@H](CCSC)C(=O)N[C@@H](CCCCN)C(=O)N[C@@H](Cc1c[nH]cn1)C(=O)N1CCC[C@H]1C(=O)N[C@@H](CCC(N)=O)C(=O)N[C@@H](CCC(=O)O)C(=O)N[C@@H](CCSC)C(=O)N[C@@H](CCCCN)C(=O)N[C@H](C(=O)N[C@@H](Cc1ccc(O)cc1)C(=O)O)[C@@H](C)O)[C@@H](C)CC`, the pIC50 in test [10] is 6.67; in test [2], 4.80; in test [5] it was 5.59; in [12], 5.87; in [6], 5.07; in test [7], < 4.66. Also, the pIC50 in [8] was < 4.46; in [9], 5.27.
On to `CC[C@H](C)[C@H](N)C(=O)N[C@@H](CC(C)C)C(=O)N[C@@H](CC(C)C)C(=O)N[C@@H](Cc1c[nH]c2ccccc12)C(=O)N[C@@H](CCC(N)=O)C(=O)N1CCC[C@H]1C(=O)N[C@H](C(=O)N1CCC[C@H]1C(=O)N[C@H](C(=O)N[C@@H](Cc1c[nH]cn1)C(=O)N[C@H](C(=O)N[C@H](C(=O)N1CCC[C@H]1C(=O)N[C@@H](CC(C)C)C(=O)N[C@@H](CO)C(=O)O)C(C)C)[C@@H](C)O)C(C)C)[C@@H](C)CC`, for which the pIC50 in test [10] is 5.63; in test [1] it was 7.19; in [2] it was 6.77; in test [3] it was 7.72; in test [4], 6.88; in test [5] it was 4.54. The pIC50 was 7.35 in test [6]; < 4.09 in [11]; < 5.05 in [7]; 5.95 in [8]; 6.15 in test [9].
For RNFYVINRLTGYLRN, the pIC50 in [10] is 7.26; in test [1] it was 7.74; in test [2], 6.66; in test [3] it was 6.28; in test [4], 5.12; in test [5], 8.25. In addition, the negative-log IC50 (pIC50) is 8.77 in test [6], 5.66 in test [11], 6.16 in test [7] and 8.03 in test [8].

The term pIC50 denotes the negative decadic logarithm of the IC50, by convention in mol/L. Read a high pIC50 as a low IC50.
